Patent US20020122768A1, “Stable radiopharmaceutical compositions and methods for preparation thereof” (priority 2000, published 2002)

Experiment: Solution stability of ^90Y-A at −78° C., RCP by radio-HPLC
Type: physicochemical
Conditions: for RCP (%) change: t = 0 h to 72 h
Experimental: The integrity of a radiopharmaceutical is measured by the radiochemical purity (RCP) of the radiolabeled compound using ITLC or more preferably HPLC. The advantage of using HPLC is that radio-impurities caused by radiolytic degradation can be separated from the radiopharmaceutical under optimized chromatographic conditions. […] The radiopharmaceutical compositions of this invention are effective in maintaining the long-term stability of samples that have been frozen, thawed, and re-tested periodically for 7 days.
The initial RCP of a radiopharmaceutical is largely dependent on radiolabeling conditions such as pH, heating temperature and time. Once a radiopharmaceutical is prepared in high yield, the stability of the radiopharmaceutical composition is measured by the` RCP change of the radiopharmaceutical over a certain period of time. For comparison purposes, sodium gentisate or sodium ascorbate was often used as the reference since they have been used in various radiopharmaceutical formulations.
Analytical Methods. HPLC method 1 used a HP-1100 HPLC system with a UV/visible detector (λ=220 nm), an IN-US radio-detector, and a Zorbax C18 column (4.6 mm×250 mm, 80 Å pore size). The flow rate was 1 mL/min with the mobile phase being isocratic from 0 to 18 min using 87% solvent A (0.025 M ammonium acetate buffer, pH 6.8) and 13% solvent B (acetonitrile), followed by an isocratic wash using 40% of solvent A and 60% solvent B from 19 to 25 min.
The ITLC method used Gelman Sciences silica-gel ITLC paper strips and 1:1 mixture of acetone and saline as eluant. By this method, the radiolabeled compounds migrate to the solvent front while [^90Y]/^177Lu]colloid and [^90Y]/^177Lu]acetate remain at the origin.
^90Y-A was prepared using the procedure described in example 4. The resulting solution was the kept in a dry-ice box (−78° C.) for 3 days. Samples were analyzed at t=0, 24, 48, and 72 h.
To a lead-shielded clean 5 mL vial containing 100 μg of COMPOUND A and 2 mg of 3,4,5-trihydroxybenzoic acid (3,4,5-THBA) dissolved in 0.5 mL of 0.5 M ammonium acetate buffer (pH=8.0) was added 20 μL Of ^90YCl3 solution (˜20 mCi) in 0.05 N HCl. The reaction mixture was heated at 100° C. for 5 min. After cooling to room temperature, 0.5 mL of 3,4,5-THBA solution (20 mg/mL) in 0.5 M ammonium acetate buffer (pH=8.0) was added to the solution above. A sample of the resulting mixture was then diluted 20-fold with GA solution (10 mg/mL, pH=7.4), and analyzed by HPLC (Method 1, injection volume=1 μL) and ITLC. […] The resulting mixture was kept at −78° C. for 3 days. Samples were analyzed at t=0, 1, 2, and 3 days.
Synthesis of ^90Y-A was carried out according to the procedure described in example 12. After cooling to room temperature, 0.5 mL of 2,3,4-THBA solution (20 mg/mL) in 0.5 M ammonium acetate buffer (pH=8.0) was added to the solution containing ^90Y-A. The resulting mixture was kept at -78 °C for 3 days. Samples were analyzed at t=0, 1, 2, and 3 days.
Synthesis of ^90Y-A was carried out according to the procedure described in example 12. After cooling to room temperature, 0.5 mL of DSA solution (20 mg/mL) in 0.5 M ammonium acetate buffer (pH=8.0) was added to the solution containing ^90Y-A. The resulting mixture was kept at −78° C. for 3 days. Samples were analyzed at t=0, 1, 2, and 3 days.
Synthesis of ^90Y-A was carried out according to the procedure described in example 12. After cooling to room temperature, 0.5 mL of HABA solution (20 mg/mL) in 0.5 M ammonium acetate buffer (pH=8.0) was added to the solution containing ^90Y-A. The resulting mixture was kept at −78° C. for 3 days. Samples were analyzed at t=0, 1, 2, and 3 days. […]
To a lead-shielded clean 30 mL vial containing 1000 μg of COMPOUND A and 100 mg of sodium gentisate (GA) dissolved in 5 mL of 0.5 M ammonium acetate buffer (pH=7.5) was added ˜250 μL of ^90YCl3 solution (˜200 mCi) in 0.05 N HCl. The reaction mixture was heated at 100° C. for 15 min. […]

[1] = ^90Y-A prepared using 2 mg 3,4,5-THBA, second stabilizer (0.5 mL of 20 mg/mL) added after radiolabeling, −78° C.
[2] = ^90Y-A prepared using 2 mg 3,4,5-THBA, second stabilizer added after radiolabeling, −78° C.
[3] = ^90Y-A, 10 mg stabilizer, dry-ice box (−78° C.)
[4] = ^90Y-A, 10 mg stabilizer, −78° C.

Molecule	RCP (%) t = 0 h [1]	RCP (%) t = 24 h [1]	RCP (%) t = 48 h [1]	RCP (%) t = 72 h [1]	RCP (%) change [2]	RCP (%) t = 0 h [3]	RCP (%) t = 24 h [3]	RCP (%) t = 48 h [3]	RCP (%) t = 72 h [3]	RCP (%) change [4]
2,4-disulfonatobenzeneamine [DSA]	98.5%	98.9%	96.7%	96.7%	1.8%	94.4%	94.0%	94.1%	94.2%	0.2%
O=C(O)c1ccc(O)c(O)c1O [2,3,4-THBA, 2,3,4-trihydroxybenzoic acid]	98.1%	99.2%	99.0%	98.2%	0%					
O=C(O)c1cc(O)c(O)c(O)c1 [3,4,5-THBA, 3,4,5-trihydroxybenzoic acid]	97.5%	98.4%	98.3%	96.6%	0.9%	93.3%	92.4%	93.5%	93.5%	0.2%
